In patent US20080096238A1, “HIGH THROUGHPUT ASSAY FOR HUMAN RHO KINASE ACTIVITY WITH ENHANCED SIGNAL-TO-NOISE RATIO” (ALCON, INC., priority 2004, published 2008):
Blank lines part the entries; values can stand above or below the compound they belong to.

Columns and labels:
Rabbit Eyes = experiment: Intraocular pressure reduction in rabbit eyes after topical ocular dosing; format: in vivo;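 further: mean IOP reduction per time point from 7-8 rabbits per group, drug-treated groups alongside vehicle-treated control groups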
[1] = tested on: Ocular Hypertensive Monkey Eyes; experiment: Intraocular pressure reduction in conscious ocular hypertensive cynomolgus monkey eyes after topical ocular dosing; format: in vivo;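 further: mean of 8 drug-treated monkeys per time point, IOP change expressed against a vehicle-dosed control group of 5 monkeys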
[2] = molecular target: T1, Human Recombinant ROCK II Enzyme (Homo sapiens, UniProt O75116); experiment: High throughput human recombinant ROCK II enzyme inhibition assay (γ-33P-ATP, Long S6 substrate peptide, filter mat); format: biochemical; settings: mean ± SEM; for Hill Coefficient (nH): Hill coefficient of the inhibition plots; for IC50: recombinant human ROCK II (aa 11-552), 100 μM ATP, 30 min at 30° C., read-out: Inhibition Constant (IC50)
T1 construct: purchased Upstate USA, Inc., Lake Placid, N.Y. 14-451
T1 sequence (O75116 11-552): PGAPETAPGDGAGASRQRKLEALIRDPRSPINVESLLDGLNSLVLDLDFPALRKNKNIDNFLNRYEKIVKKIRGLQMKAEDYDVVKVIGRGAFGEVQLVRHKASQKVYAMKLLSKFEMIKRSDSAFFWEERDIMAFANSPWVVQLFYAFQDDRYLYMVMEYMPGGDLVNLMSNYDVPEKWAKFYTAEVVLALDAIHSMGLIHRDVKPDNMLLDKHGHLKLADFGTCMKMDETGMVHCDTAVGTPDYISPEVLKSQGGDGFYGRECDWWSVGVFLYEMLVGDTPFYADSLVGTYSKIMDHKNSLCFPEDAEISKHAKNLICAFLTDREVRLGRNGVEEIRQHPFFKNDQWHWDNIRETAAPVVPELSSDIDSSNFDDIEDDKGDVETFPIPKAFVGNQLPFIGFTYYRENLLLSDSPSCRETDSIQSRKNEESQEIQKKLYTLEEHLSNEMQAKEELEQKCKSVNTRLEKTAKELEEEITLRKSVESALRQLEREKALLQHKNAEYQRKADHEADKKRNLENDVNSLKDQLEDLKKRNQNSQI
Description: The enzyme assays are performed using a Biomek 2000 Robotic Workstation (Beckman Instruments, Palo Alto, Calif.) in a 96-well format using γ-^33P-ATP (Perkin-Elmer Life Sciences, Boston, Mass.). Stock γ-^33P-ATP (3000 Ci/mmol) is diluted to 1 μCi/μl with the MgCl2/ATP cocktail solution. The concentrations of MgCl2/ATP used are 15 mM and 100 μM, respectively. […] The unutilized [γ-^33P]-ATP and other residual reagents are thereby eliminated from the filter mat but the radioactive phosphorylated peptide product is retained on the filter mat for quantification. The automated washing of the filter mat thereby enhances the signal-to-noise ratio of the assay thus rendering it into a sensitive assay. The filter mats bearing the captured radioactive phosphorylated product are then dried in a microwave oven for 15 sec, placed in special sample cellophane bag (Wallac Inc., Turku, Finland) designed for these filter mats and covered with 20 ml of Betaplate scintillation fluid (Perkin-Elmer Inc., Boston, Mass.). The bags are then sealed using a heat sealer device (Wallac Inc., Turku, Finland) and a roller used to evenly spread the scintillation fluid over the whole of the filter mat.
In a further embodiment of the present invention, the dried filter mat can be covered with a solid scintillant (MELTILEX®; Wallac Inc., Turku, Finland) that is melted directly onto the filter mat using a MELTILEX® heat sealer (Wallac Inc., Turku, Finland), a device designed for this purpose. The coated filter mat is then placed in a sample cellophane bag (Wallac Inc., Turku, Finland) designed for these filter mats that is then sealed and the radioactivity determined as described above. The solid scintillant assists in avoiding the spread of radioactivity from sample to sample on the dried filter mat and thus minimizes variation of the data. A solid scintillant also eliminates waste disposal of liquid scintillation fluid.
The raw data from the filter mats are then automatically sent electronically to a computer for semi-automated analyses using algorithms and a suite of programs (XLFITT computer program; IDBS corporation, Emeryville, Calif.) that perform non-linear, iterative, sigmoidal-fit analyses of the raw data.

[3] = topical ocular dose 500 μg, 1 Hour Post Dosing
[4] = topical ocular dose 500 μg, 2 Hours Post Dosing
[5] = topical ocular dose 500 μg, 3 Hours Post Dosing
[6] = topical ocular dose 500 μg, 4 Hours Post Dosing
[7] = topical ocular dose 1 mg, 1 Hour Post Dosing
[8] = topical ocular dose 1 mg, 3 Hours Post Dosing
[9] = topical ocular dose 300 μg, 1 Hour Post Dosing
[10] = topical ocular dose 300 μg, 3 Hours Post Dosing
[11] = topical ocular dose 300 μg, 6 Hours Post Dosing
[12] = topical ocular dose 1 mg, 6 Hours Post Dosing
[13] = topical ocular dose 500 μg, 6 Hours Post Dosing
[14] = topical ocular dose 300 μg, 2 Hours Post Dosing
[15] = topical ocular dose 300 μg, 4 Hours Post Dosing

Hill Coefficient (nH) [2]: 0.94 ± 0.11
Structure (SMILES): Cc1cncc2cccc(S(=O)(=O)N3CCNC(C)C3)c12 (stereo not drawn) [F]
% Max. IOP Reduction in Ocular Hypertensive Monkey Eyes [1, 3]: 23% | % Max. IOP Reduction in Ocular Hypertensive Monkey Eyes [1, 5]: 20% | % Max. IOP Reduction in Ocular Hypertensive Monkey Eyes [1, 13]: 20%

Hill Coefficient (nH) [2]: 0.9 ± 0.3 | IC50 [2]: 12 µM
Structure (SMILES): O=S(=O)(c1cccc2c(Cl)cccc12)N1CCCNCC1 [J, ML-9]
% Max. IOP Reduction in Rabbit Eyes (Rabbit Eyes; [9]): 8% | % Max. IOP Reduction in Rabbit Eyes (Rabbit Eyes; [14]): 23% | % Max. IOP Reduction in Rabbit Eyes (Rabbit Eyes; [10]): 0.4% | % Max. IOP Reduction in Rabbit Eyes (Rabbit Eyes; [15]): 6% | % Max. IOP Reduction in Ocular Hypertensive Monkey Eyes [1, 9]: 7% | % Max. IOP Reduction in Ocular Hypertensive Monkey Eyes [1, 10]: 6% | % Max. IOP Reduction in Ocular Hypertensive Monkey Eyes [1, 11]: 5%

Hill Coefficient (nH) [2]: 0.95 ± 0.16
Structure (SMILES): Cc1cncc2cccc(S(=O)(=O)N3CCCN(C)C(C)C3)c12 (stereo not drawn) [H]

Hill Coefficient (nH) [2]: 0.91 ± 0.28
Structure (SMILES): CC1CN(S(=O)(=O)c2cccc3cnccc23)CCN1 (stereo not drawn) [I, HA-135]
% Max. IOP Reduction in Ocular Hypertensive Monkey Eyes [1, 3]: 19% | % Max. IOP Reduction in Ocular Hypertensive Monkey Eyes [1, 5]: 15% | % Max. IOP Reduction in Ocular Hypertensive Monkey Eyes [1, 13]: 1%

More lines, now with the values behind:

Structure (SMILES): Cc1cncc2cccc(S(=O)(=O)N3CCCNCC3C)c12 (stereo not drawn) [A, HMN-1152]
% Max. IOP Reduction in Rabbit Eyes (Rabbit Eyes; [3]): 34% | % Max. IOP Reduction in Rabbit Eyes (Rabbit Eyes; [4]): 34% | % Max. IOP Reduction in Rabbit Eyes (Rabbit Eyes; [5]): 27% | % Max. IOP Reduction in Rabbit Eyes (Rabbit Eyes; [6]): 19% | % Max. IOP Reduction in Rabbit Eyes (Rabbit Eyes; [7]): 29% | % Max. IOP Reduction in Rabbit Eyes (Rabbit Eyes; topical ocular dose 1 mg, 2 Hours Post Dosing): 35% | % Max. IOP Reduction in Rabbit Eyes (Rabbit Eyes; [8]): 32% | % Max. IOP Reduction in Rabbit Eyes (Rabbit Eyes; topical ocular dose 1 mg, 4 Hours Post Dosing): 24% | % Max. IOP Reduction in Ocular Hypertensive Monkey Eyes ([1]; topical ocular dose 100 μg, 1 Hour Post Dosing): 28% | % Max. IOP Reduction in Ocular Hypertensive Monkey Eyes ([1]; topical ocular dose 100 μg, 3 Hours Post Dosing): 25% | % Max. IOP Reduction in Ocular Hypertensive Monkey Eyes ([1]; topical ocular dose 100 μg, 6 Hours Post Dosing): 19% | % Max. IOP Reduction in Ocular Hypertensive Monkey Eyes [1, 9]: 29% | % Max. IOP Reduction in Ocular Hypertensive Monkey Eyes [1, 10]: 30% | % Max. IOP Reduction in Ocular Hypertensive Monkey Eyes [1, 11]: 21% | % Max. IOP Reduction in Ocular Hypertensive Monkey Eyes [1, 7]: 42% | % Max. IOP Reduction in Ocular Hypertensive Monkey Eyes [1, 8]: 51% | % Max. IOP Reduction in Ocular Hypertensive Monkey Eyes [1, 12]: 36%

Structure (SMILES): CC1CNCCN1S(=O)(=O)c1cccc2cnccc12 (stereo not drawn) [E, H-7]
Hill Coefficient (nH) [2]: 0.99 ± 0.13 | % Max. IOP Reduction in Rabbit Eyes (Rabbit Eyes; [3]): 19% | % Max. IOP Reduction in Rabbit Eyes (Rabbit Eyes; [4]): 11% | % Max. IOP Reduction in Rabbit Eyes (Rabbit Eyes; [5]): 0% | % Max. IOP Reduction in Rabbit Eyes (Rabbit Eyes; [6]): 6% | % Max. IOP Reduction in Ocular Hypertensive Monkey Eyes [1, 7]: 31% | % Max. IOP Reduction in Ocular Hypertensive Monkey Eyes [1, 8]: 21% | % Max. IOP Reduction in Ocular Hypertensive Monkey Eyes [1, 12]: 12%

Structure (SMILES): Cc1cncc2c1=C(S(=O)(=O)N1CCCN(C)CC1C)CCC=2 (stereo not drawn) [B]
Hill Coefficient (nH) [2]: 0.6 ± 0.2 | IC50 [2]: 0.485 ± 0.207 µM

Structure (SMILES): CC(N)[C@H]1CC[C@H](C(=O)Nc2ccccc2)CC1 (stereo partly drawn) [G, Y-27632]
% Max. IOP Reduction in Rabbit Eyes (Rabbit Eyes; topical ocular dose 2 mg, 1 Hour Post Dosing): 26% | % Max. IOP Reduction in Rabbit Eyes (Rabbit Eyes; topical ocular dose 2 mg, 2 Hours Post Dosing): 28% | % Max. IOP Reduction in Rabbit Eyes (Rabbit Eyes; topical ocular dose 2 mg, 3 Hours Post Dosing): 29% | % Max. IOP Reduction in Rabbit Eyes (Rabbit Eyes; topical ocular dose 2 mg, 4 Hours Post Dosing): 27% | % Max. IOP Reduction in Ocular Hypertensive Monkey Eyes [1, 9]: 15% | % Max. IOP Reduction in Ocular Hypertensive Monkey Eyes [1, 10]: 14% | % Max. IOP Reduction in Ocular Hypertensive Monkey Eyes [1, 11]: 8% | % Max. IOP Reduction in Ocular Hypertensive Monkey Eyes [1, 7]: 24% | % Max. IOP Reduction in Ocular Hypertensive Monkey Eyes [1, 8]: 36% | % Max. IOP Reduction in Ocular Hypertensive Monkey Eyes [1, 12]: 32%

Structure (SMILES): O=S(=O)(c1cccc2cnccc12)N1CCCNCC1 [D, Fasudil, Fasudil]
% Max. IOP Reduction in Rabbit Eyes (Rabbit Eyes; [9]): 17% | % Max. IOP Reduction in Rabbit Eyes (Rabbit Eyes; [14]): 29% | % Max. IOP Reduction in Rabbit Eyes (Rabbit Eyes; [10]): 26% | % Max. IOP Reduction in Rabbit Eyes (Rabbit Eyes; [15]): 20% | % Max. IOP Reduction in Rabbit Eyes (Rabbit Eyes; [3]): 25% | % Max. IOP Reduction in Rabbit Eyes (Rabbit Eyes; [4]): 33% | % Max. IOP Reduction in Rabbit Eyes (Rabbit Eyes; [5]): 25% | % Max. IOP Reduction in Rabbit Eyes (Rabbit Eyes; [6]): 17% | % Max. IOP Reduction in Ocular Hypertensive Monkey Eyes [1, 3]: 33% | % Max. IOP Reduction in Ocular Hypertensive Monkey Eyes [1, 5]: 28% | % Max. IOP Reduction in Ocular Hypertensive Monkey Eyes [1, 13]: 16%
